System: vascular smooth muscle cells
Assay: LDH release cytotoxicity assay with or without cyclic mechanical strain
Details: 10 nM mithramycin, 24 hours
Experimental: A colorimetric cytotoxicity assay was used assess the presence of cell death during mechanical loading/drug treatment (Promega). This assay measures release of lactate dehydrogenase (LDH) activity and was used according to the manufactures directions. Mechanical stretch to cells in culture using the various waveforms were applied to cell culture. To confirm the biocompatibility of the cells in the system, cell death was measured through an LDH release assay. The maximal strain of 5% was set to be identical between the groups. After 4 hours of mechanical loading the cytotoxicity of the mechanical load was used using a LDH release assay.
Toxicity testing in the presence of mechanical load. Toxicity of chemotherapeutic drug mithramycin is tested in the presence or absence of mechanical strain. Specifically, cyclic mechanical load of 5% maximal strain was applied to vascular smooth muscle cells in the presence or absence of 10 nM mithramycin for 24 hours. Experiments of vascular smooth muscle cells in the presence or absence of 10 nM mithramycin without mechanical strains were also performed for comparison during the same time period. Release of lactate dehydrogenase (LDH) was measured as indication of cell death and the results were plotted in FIG. 11.

Question: Which results are given for mithramycin?
Answer: Release of lactate dehydrogenase (LDH) compared to control cells (absence of mechanical strain): about the same; Increase in LDH release from the cells compared to the control (cyclic mechanical load of 5% maximal strain): four folds increase

— patent publication US20140273210A1, “HIGH […] […] FOR CELL CULTURES AND APPLICATIONS THEREOF” (Board Of Regents, The University Of Texas System, priority 2013, published 2014)
